According to patent US10239887B2, “Positive allosteric modulators of the muscarinic acetylcholine receptor M4” (Vanderbilt University, priority 2016, dated 2019):
pEC50, pIC50: −log10 of the molar value. In brackets after ≈: the same amount, converted by molar mass.

Key:
Human M2 = target: T1, Human M2 (Homo sapiens, UniProt P08172); assay: analogous cell-based functional assay using human M2
T1 sequence (P08172 1-466): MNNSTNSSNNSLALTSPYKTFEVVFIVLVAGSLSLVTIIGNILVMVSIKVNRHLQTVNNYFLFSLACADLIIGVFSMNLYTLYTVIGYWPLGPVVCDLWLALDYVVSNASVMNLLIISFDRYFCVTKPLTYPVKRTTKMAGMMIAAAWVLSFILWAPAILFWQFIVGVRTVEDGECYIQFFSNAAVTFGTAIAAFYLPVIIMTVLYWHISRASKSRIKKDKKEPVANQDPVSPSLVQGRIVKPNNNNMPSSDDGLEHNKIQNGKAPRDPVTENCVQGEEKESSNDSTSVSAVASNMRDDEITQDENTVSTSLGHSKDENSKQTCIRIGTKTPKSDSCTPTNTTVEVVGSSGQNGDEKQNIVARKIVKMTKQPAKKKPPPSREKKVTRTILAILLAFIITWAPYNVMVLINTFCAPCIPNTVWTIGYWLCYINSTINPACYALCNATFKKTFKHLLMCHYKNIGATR

bacterial = bacterial cytotoxicity assay; assay type: cell-based; conditions: 0.6-100 μM
[1] = solubility (aqueous, faSSIF, SGF); assay type: physicochemical
[2] = fraction unbound in plasma, dog; assay type: in vitro ADME; conditions: read-out: Dog Fu (plasma)
Procedure: (§1) Compound 76 was in several in vitro assays to investigate both metabolism and pharmacokinetics. These assays were performed according to known methods as generally described in the following references: Conde-Ceide et al. ACS Med. Chem. Lett. 2015, 6, 716-720; Morris et al. J. Med. Chem. 2014, 57, 10192-10197; and Bubser et al. ACS Chem. Neurosci. 2014, 5, 920-942.

[3] = fraction unbound in plasma, cyno; assay type: in vitro ADME; conditions: cynomolgus monkey, read-out: Cyno Fu (plasma)
Procedure: as §1

intrinsic clearance, rat = assay type: in vitro ADME
Procedure: as §1

P450 1A2 = target: T2, P450 1A2 (Homo sapiens, UniProt P05177); assay: P450 1A2 inhibition; assay type: in vitro ADME
T2 sequence (P05177 1-516): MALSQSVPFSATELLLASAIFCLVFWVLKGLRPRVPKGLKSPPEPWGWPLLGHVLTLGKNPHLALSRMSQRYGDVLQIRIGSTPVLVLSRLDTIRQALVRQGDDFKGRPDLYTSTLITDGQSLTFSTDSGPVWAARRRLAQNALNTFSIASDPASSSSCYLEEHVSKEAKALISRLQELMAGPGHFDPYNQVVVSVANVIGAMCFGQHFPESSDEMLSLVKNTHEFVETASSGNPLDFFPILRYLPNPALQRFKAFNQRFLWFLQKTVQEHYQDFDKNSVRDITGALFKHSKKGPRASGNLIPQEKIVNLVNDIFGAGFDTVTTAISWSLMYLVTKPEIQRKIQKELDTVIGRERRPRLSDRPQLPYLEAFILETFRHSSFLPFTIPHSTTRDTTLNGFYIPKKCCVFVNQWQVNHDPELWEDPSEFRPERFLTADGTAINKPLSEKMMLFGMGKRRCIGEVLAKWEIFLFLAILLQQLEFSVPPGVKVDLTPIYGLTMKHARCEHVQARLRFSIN
Procedure: as §1

in vivo [4] = conditions: rat
in vivo [5] = conditions: cynomolgus monkey
in vivo DMPK, rat = conditions: 3 mg/kg
[6] = tested on: four strains of Salmonella; assay: Eurofins Ames Test; conditions: 5-100 μM
rat mAChR M4 = target: T3, rat mAChR M4 (Rattus norvegicus, UniProt P08485); assay: mAChR M4 cell-based functional assay (calcium flux), rat M4; design: Emax: dose or concentration left out as unconfirmed
T3 sequence (P08485 1-478): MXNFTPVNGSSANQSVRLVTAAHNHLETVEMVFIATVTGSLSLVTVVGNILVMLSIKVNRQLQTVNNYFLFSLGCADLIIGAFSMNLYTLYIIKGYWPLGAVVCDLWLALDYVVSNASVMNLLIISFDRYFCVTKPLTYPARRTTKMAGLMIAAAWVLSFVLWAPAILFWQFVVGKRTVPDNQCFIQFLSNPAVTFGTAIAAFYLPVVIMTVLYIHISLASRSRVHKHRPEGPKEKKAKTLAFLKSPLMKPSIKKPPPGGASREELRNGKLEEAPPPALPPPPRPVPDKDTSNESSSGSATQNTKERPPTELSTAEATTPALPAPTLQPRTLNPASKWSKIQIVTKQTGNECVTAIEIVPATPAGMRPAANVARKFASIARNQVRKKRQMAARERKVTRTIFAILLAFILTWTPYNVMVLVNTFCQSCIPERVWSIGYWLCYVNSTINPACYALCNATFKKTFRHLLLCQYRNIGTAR

Cc1nnc2sc3c(NCc4ccc(C(C)(C)O)cc4)ncnc3c2c1C [Compound 76, 2-[4-[[(3,4-Dimethylpyrimido[4′,5′:4,5]thieno[2,3-c]pyridazin-8-yl)amino]methyl]phenyl]propan-2-ol]
Emax (Human M2; Human M2): 48% | pEC50 (Human M2; analogous assay using human M2): 5.55 | bacterial cytotoxicity result (bacterial): clean | solubility ([1]; aqueous medium (pH 7.4), pH 7.4, aqueous buffer): 166 µM (≈ 63 µg/mL) | SGF ([1]; solubility in SGF): 180 µM | faSSIF ([1]; solubility in faSSIF): 24 µM | fraction unbound [2]: 0.057 | fraction unbound [3]: 0.009 | CLint scaled (intrinsic clearance, rat): 87 mL/min/kg | pIC50 (P450 1A2): < 4.52 | Kp (in vivo [4]; brain): 0.31 | Vd (in vivo [4]; plasma): 1 L/kg | clearance (in vivo [4]; plasma): 4.4 mL/min/kg | half-life (in vivo [4]; plasma): 3 h | Kp (in vivo [5]; brain): 0.37 | Kp uu (in vivo [5]; brain): 0.62 | Vd (in vivo [5]; plasma): 0.9 L/kg | clearance (in vivo [5]; plasma): 5.3 mL/min/kg | half-life (in vivo [5]; plasma): 4.5 h | Rat oral F (in vivo DMPK, rat): >100% | Ames test result [6]: clean | Emax (rat mAChR M4): 77%
